How the values were obtained:
[1] = test system: HMEC cells; assay: pH2AX foci 24 h after contacting, Table 4 lower part (HMEC endothelial cells); assay type: cell-based, human; conditions: line cell blank (below Hasp), 24 hours after contacting
Procedure: (§1) In one embodiment, on receipt, the tissue sample (typically the biopsy) is established in the form of an amplifiable cell line without a viral or chemical transformation agent according to an ancillary procedure well known to culture laboratories, as underlined by the publication of Elkind et al. “The radiobiology of cultured mammalian cell”, Gordon and Breach (1967). Once the number of cells is sufficient (typically after 1 to 3 weeks), the first experiments are carried out using the process according to the invention. A cell sample is prepared: The cells are inoculated on glass coverslips in Petri dishes. A portion of these coverslips are contaminated with metals or pesticides or any other DNA-breaking chemical or biochemical agent at different concentrations. A further portion is not contaminated; it represents the spontaneous state. During contamination, the cells remain in the culture incubator at 37° C.
(§2) For the contaminated cells, characteristics are acquired corresponding to the state after an incubation time with the DNA-breaking chemical or biochemical agent. Said characteristics are represented by foci corresponding to the marker pH2AX. The cells on glass coverslips are then fixed, lysed and hybridized. The following procedure, known per se (Bodgi et al, “A single formula to describe radiation-induced protein relocalization: towards a mathematical definition of individual radiosensitivity”, J Theor Biol. 21 p 333:135-45.2013):
(§3) the cells are fixed in 3% paraformaldehyde and 2% sucrose for 15 minutes at ambient temperature and permeabilized in 20 mM HEPES buffer solution (4-(2-hydroxyethyl)-1-piperazine ethane sulfonic acid) at pH 7.4, 50 mM NaCl, 3 mM MgCl2, 300 mM sucrose, 0.5% Triton X-100 (a non-ionic surfactant having the formula t-Oct-C6H4-(OCH2CH2)×OH where x=9-10, CAS No. 9002-93-1, supplied for example by Sigma Aldrich) for 3 minutes. The glass coverslips are then washed in phosphate buffer saline (known as the acronym PBS) before immunological staining. The incubation took place for 40 min at 37° C. in PBS supplemented with 2% bovine serum albumin (known as the acronym BSA or fraction V, supplied for example by Sigma Aldrich) and was followed by a wash with PBS. Anti-pH2AX primary antibodies are used at a concentration of 1:800. The incubations with anti-mouse FITC or anti-rabbit TRITC secondary antibodies (1:100, supplied by Sigma Aldrich) were performed at 37° C. in 2% BSA for 20 minutes. Glass coverslips were treated with Vectashield™ containing DAPI (4,6-Diamidino-2-phenylindole) to label the nucleus. Staining with DAPI also makes it possible, indirectly, to determine the number of cells in phase G1 (nuclei with homogenous DAPI staining), in phase S (nuclei with numerous pH2AX foci), in phase G2 (nuclei with heterogeneous DAPI staining) and metaphases (visible chromosomes).
(§4) The results are acquired using these coverslips on an immunofluorescence microscope (Olympus model for example). The reading may be direct (typically by counting the foci on at least 50 cells in G0/G1 for each point) or using dedicated image analysis software, or on an automated microscope; preferably the software or automated microscope methods are calibrated with manual determinations.
(§5) The tables hereinafter summarize the results of numerous experiments which were carried out as described in the “Detailed description” section above.
(§6) In tables 3 and 4, “pH2AX” corresponds to the mean number of nuclear foci obtained with the marker pH2AX, 24 hours after contacting the cell sample with the chemical agent at the concentration C (NpH2AX(24 h, C)), and where “Micronuclei” corresponds to the mean number of micronuclei observed per 100 cells 24 hours after contacting the cell sample with the chemical agent at the concentration C(NMN(24 h, C)).

[2] = test system: HMEC cells; assay: Micronuclei per 100 cells 24 h after contacting, Table 4 lower part (HMEC); assay type: cell-based, human; conditions: line cell blank (below Hasp)
Procedure: as §1, §3
(§7) Counterstaining with DAPI (a DNA marker known to those skilled in the art) makes it possible to locate the nucleus to situate the cytoplasmic or nuclear location to quantify the micronuclei, which are complementary cell markers to the data on the foci.
as §5, §6

[3] = test system: pH2AX nuclear foci (DNA double-strand breaks); assay: Single toxicity scale: reference concentration Cref and risk group prediction from NpH2AX(24 h); assay type: cell-based, human; conditions: for Reference concentration Cref: NpH2AX(24 h) < 2; for Prediction based on algorithm: concentration above which “Group III” risk: NpH2AX(24 h) > 8
Procedure: (i) if the reference concentration has not previously been determined by the chemical or biochemical agent to be studied, a cell sample is prepared by dispersion and/or amplification of so-called reference cells (sensitivity group I); a plurality of concentrations within a broad concentration range of said breaking agent (said concentration range ranging for example from nM to mM) is applied for a predetermined period of time (preferably 24 hours) on this cell sample; pH2AX immunofluorescence is performed with DAPI counterstaining which also enables on the same cell sample the analysis of micronuclei for all the concentrations applied.
(ii) Either the mean number of nuclear foci observed with the marker pH2AX at the observation times t and at the concentration C (this mean number being referred to as NpH2AX(t, C)), or the mean number of micronuclei per 100 cells at the observation times t and at the concentration C (this mean number being referred to as NMN(t, C)), or the standard error a corresponding to the error committed on these respective measurements which must be performed on at least 50 nuclei once (Gaussian standard error) or 3 independent experiments of 50 nuclei (standard error of the mean).
(iii) The so-called reference concentration Cref is the concentration giving:
NpH2AX(24 h,Cref)+2σ=2 or indeed NMN(24 h,Cref)+2σ=2%;
If for the cell sample NpH2AX(24 h, Cref)<=2 or NMN(24 h, Cref)<=0.5%, preferably NMN(24 h, Cref)<=1% or even more preferentially NMN(24 h, Cref)<=2%, then the genotoxic risk is considered to be low or described as “Group I”
The experimental data presented in table 4 above were used to determine the reference concentration Cref particularly for Pb(NO3)2 (Cref<1 μM) and CdCl2 (Cref=10 μM).
Table 5 presents numerical examples of correspondence between the single toxicity scale according to the invention and the corresponding clinical signs.

[4] = test system: humans exposed; conditions: Hinkley USA; cited from earlier work
[5] = test system: 1BR3 (control cells); assay: pH2AX foci immunofluorescence 24 h after contacting, 1BR3 control fibroblasts; assay type: cell-based, human; conditions: for pH2AX(24) + 2xSEM / pH2AX(24): 1BR3; for pH2AX(24) + 2xSEM: 24 hours; for pH2AX(24): 24 hours after contacting
Procedure: as §1, §2, §3, §4
(§8) Commercial 1BR3 and 149 BR control fibroblasts were amplified according to the recommendations of the supplier (SIGMA-ALDRICH) until the number of cells sought was obtained. After obtaining a sufficient number of cells (generally after one to 3 weeks), the first experiments were conducted using the process according to the invention. The cells were inoculated on glass coverslips in Petri dishes.
(§9) The acquisition of the results was carried out using these coverslips on an immunofluorescence microscope (Olympus model). The reading was performed directly by counting the foci obtained with the marker pH2AX on at least 50 cells in G0/G1 for each point or using dedicated image analysis software (imageJ). […]

[6] = test system: 149BR (control cells); assay: pH2AX foci immunofluorescence 24 h after contacting, 149BR control fibroblasts; assay type: cell-based, human; conditions: for pH2AX(24) + 2xSEM / pH2AX(24): 149BR; for pH2AX(24) + 2xSEM: 24 hours; for pH2AX(24): 24 hours after contacting
Procedure: as §1, §2, §3, §4, §8, §9

[7] = test system: 04PSL cells; assay: pH2AX foci immunofluorescence 24 h after contacting, 04PSL patient skin cell line; assay type: cell-based, human; conditions: for pH2AX: 24 hours after contacting (Table 3); for pH2AX(24) + 2xSEM: 24 hours; for pH2AX(24 h): 24 hours after contacting (Table 1)
Procedure: as §3
A skin cell sample from a patient was sampled by biopsy via the “skin punch” method known to those skilled in the art. The cell sample was then placed in DMEM medium+20% sterile fetal calf serum. The cell sample was then transferred without delay to a specialized laboratory, so that the sample remained not more than 38 hours at ambient temperature.
On receipt, the cell sample from the biopsy was established in the form of an amplifiable 04PSL cell line according to a procedure well known to culture laboratories and those skilled in the art: using particularly the trypsin dispersion, the cells are once again diluted in replenished medium and so on until the number of cells sought is obtained. […] The 04PSL line cells were inoculated on glass coverslips in Petri dishes.
The acquisition of the results was carried out using these coverslips on an immunofluorescence microscope (Olympus model). The reading was performed directly by counting the foci obtained with the marker pH2AX on at least 50 cells in G0/G1 for each point or using dedicated image analysis software (imageJ).
In order to obtain results of sufficient statistical reliability to serve as a basis for diagnosis, 3 independent series of experiments were performed.
as §6

[8] = test system: 04PSL cells; assay: Micronuclei per 100 cells (DAPI) 24 h after contacting, 04PSL; assay type: cell-based, human
Procedure: as §1, §3, §7, §5, §6

[Cl][Cd][Cl] [CdCl2]
pH2AX ([1]; 10 μM): 1.9 foci
pH2AX ([1]; 30 μM): 3.7 foci
pH2AX ([1]; 100 μM): 8.3 foci
Micronuclei ([2]; 10 μM): 3.5 per 100 cells
Micronuclei ([2]; 30 μM): 9 per 100 cells
Micronuclei ([2]; 100 μM): 12.25 per 100 cells
Reference concentration Cref ([3]; determined from data of table 4): 10 µM
Prediction based on algorithm: concentration above which “Group III” risk [3]: predicted above 100 μM

[Na+].[Na+].[O]=[Cr](=[O])([O-])[O-] [Chromium, Na2CrO4]
Reference concentration Cref [3]: 0.003 µM
Prediction based on algorithm: concentration above which “Group III” risk [3]: predicted above 30 nM
Cases of poisoning, concentration in tap water (estimated) [4]: concentration in tap water was estimated at 23 Nm
Cases of poisoning, concentration in well water [4]: 1.19 g/L
Cases of poisoning, concentration in well water, equivalent [4]: 4.6 mM

O=C(O)CNCP(=O)(O)O [glyphosate]
pH2AX(24) + 2xSEM ([5]; glyphosate 3 μM): 1.856 foci
pH2AX(24) ([5]; glyphosate 3 μM): 1.6 foci
pH2AX(24) + 2xSEM ([5]; glyphosate 10 μM): 1.856 foci
pH2AX(24) ([5]; glyphosate 10 μM): 1.6 foci
pH2AX(24) + 2xSEM ([5]; glyphosate 30 μM): 2.204 foci
pH2AX(24) ([5]; glyphosate 30 μM): 1.9 foci
pH2AX(24) + 2xSEM ([5]; glyphosate 100 μM): 2.32 foci
pH2AX(24) ([5]; glyphosate 100 μM): 2 foci
pH2AX(24) + 2xSEM ([5]; glyphosate 300 μM): 2.668 foci
pH2AX(24) ([5]; glyphosate 300 μM): 2.3 foci
reference concentration Cref defined by NpH2AX(24 h, Cref)+2σ=2 ([5]; control cell line 1BR3): 100 µM
pH2AX(24) + 2xSEM ([6]; glyphosate 3 μM): 0.928 foci
pH2AX(24) ([6]; glyphosate 3 μM): 0.8 foci
pH2AX(24) + 2xSEM ([6]; glyphosate 10 μM): 1.16 foci
pH2AX(24) ([6]; glyphosate 10 μM): 1 foci
pH2AX(24) + 2xSEM ([6]; glyphosate 30 μM): 1.74 foci
pH2AX(24) ([6]; glyphosate 30 μM): 1.5 foci
pH2AX(24) + 2xSEM ([6]; glyphosate 100 μM): 2.088 foci
pH2AX(24) ([6]; glyphosate 100 μM): 1.8 foci
pH2AX(24) + 2xSEM ([6]; glyphosate 300 μM): 3.48 foci
pH2AX(24) ([6]; glyphosate 300 μM): 3 foci
reference concentration Cref defined by NpH2AX(24 h, Cref)+2σ=2 ([6]; control cell line 149BR): 100 µM
pH2AX ([7]; 3 μM): 1.7 foci
pH2AX ([7]; 10 μM): 1.9 foci
pH2AX ([7]; 30 μM): 4.8 foci
pH2AX ([7]; 100 μM): 6.5 foci
pH2AX ([7]; 300 μM): 8.7 foci
pH2AX(24) + 2xSEM ([7]; glyphosate 3 μM): 1.972 foci
pH2AX(24 h) ([7]; glyphosate 3 μM): 1.7 foci
pH2AX(24) + 2xSEM ([7]; glyphosate 10 μM): 2.088 foci
pH2AX(24 h) ([7]; glyphosate 10 μM): 1.8 foci
pH2AX(24) + 2xSEM ([7]; glyphosate 30 μM): 4.756 foci
pH2AX(24 h) ([7]; glyphosate 30 μM): 4.1 foci
pH2AX(24) + 2xSEM ([7]; glyphosate 100 μM): 6.96 foci
pH2AX(24 h) ([7]; glyphosate 100 μM): 6 foci
pH2AX(24) + 2xSEM ([7]; glyphosate 300 μM): 9.744 foci
pH2AX(24 h) ([7]; glyphosate 300 μM): 8.4 foci
number of pH2AX foci ([7]; glyphosate concentration of 100 μM, 24 h): approximately 7 foci
Micronuclei ([8]; 3 μM): 6 per 100 cells
Micronuclei ([8]; 10 μM): 4 per 100 cells
Micronuclei ([8]; 30 μM): 10 per 100 cells
Micronuclei ([8]; 150 μM): 12 per 100 cells
Micronuclei ([8]; 300 μM): 14 per 100 cells
